In US9988626B2, “Neurocalcin delta inhibitors and therapeutic and non-therapeutic uses thereof” (Universität Zu Köln, priority 2013, dated 2018):
Entries after “also recorded” stand apart in the source; their conditions may differ.

System: zebrafish embryos
Test: Zebrafish motor axon phenotype (znp-1 staining) after morpholino or mRNA injection
Assay type: in vivo
Settings: 34 hpf zebrafish, smn MO 4 ng, ncald MO 2 ng
Method: Zebrafish were dechorionated and fixed in 4% PFA-PBS 34 hours after fertilization. Collagenase digest was performed to permeabilize the larvae for the following antibody staining. In brief, fish were stained at 4° C. over night in 500 μl PBS-T/10% FCS containing znp-1 antibody (1:300, Hybridoma Bank). After all-day washing in PBS-T/1% FCS/1% BSA (changing solution every hour) fish were stained in PBS-T/1% DMSO/10% FCS containing secondary donkey anti-mouse antibody labelled with Alexafluor 488 (1:200, Invitrogen). After repeated washing, fish were stored in 80% glycerol/20% PBS in the dark at 4° C. Microscopic analysis of fish was performed in 80% glycerol on micro slides using a fluorescence microscope (Axioskop 2, Zeiss). The length of each of the first ten motoraxons behind the yolk was analyzed and evaluated. For NSC34 cell staining cells were fixed in 4% PFA for 15 min at RT. Following fixation, cells were rinsed 1× in PBS for 5 min. After another washing step with PBS, cells were permeabilized in 0.2% Triton X in PBS for 5 min. […]
The used antisense Morpholino (MO) was designed against the translational start codon of the ncald gene (Gene Tools, LLC): 5′-[…]-3′ (SEQ ID NO: 2). […] Six hours after injection embryos were sorted according to homogeneity of the rhodamine fluorescence signal reflecting the equal distribution of the injected MO solution. […]

**Q.** Which “Motor axon phenotype (truncation, branching)” value does the source give for “smn MO: previously published morpholino knocking down zebrafish smn, CGACATCTTCTGCACCATTGGC (all phosphorodiamidate morpholino (PMO))” here?
**A.** high numbers of severely truncated motor neuron axons; also recorded: massive motor axon-specific outgrowth defects
